# Source: patent US6544989B2, “Benzazoles: benzoxazole, benzthiazole and benzimidazole derivatives” (Syngenta Limited, priority 1998, dated 2003)
# Marks after values point to notes of the source that are not given here.
# Key:
# [1] = system: Uncinula necator; experiment: Fungicidal test, Uncinula necator (UNCINE) on vines, PRCO; assay type: in vivo; conditions: METHOD 2 (unbanded)
# [2] = system: Phytophthora infestans lycopersici; assay type: in vivo; conditions: METHOD 1 (values marked *)
# [3] = system: Rhizoctonia solani; experiment: Fungicidal test, Rhizoctonia solani (RHIZSO) on rice, PRCO; assay type: in vivo; conditions: METHOD 2 (unbanded)
# [4] = system: Septoria nodorum; experiment: Synergy test of two-compound mixtures, Septoria nodorum (LEPTNO) on wheat, observed and expected PRCO; assay type: in vivo
# [5] = system: Puccinia recondita; experiment: Fungicidal test, Puccinia recondita (PUCCRT) on wheat, PRCO; assay type: in vivo; conditions: METHOD 2 (unbanded)
# [6] = system: Rhizoctonia solani; experiment: Synergy test of two-compound mixtures, Rhizoctonia solani (RHIZSO) on turf, observed and expected PRCO; assay type: in vivo; conditions: Disease on untreated 100%, assessed 5 days after treatment, Compound 15(A3) 300 mg/l alone
# [7] = system: Meloidogyne incognita; experiment: Nematode test, J2 infective juveniles of Meloidogyne incognita, mortality; conditions: 12.5 ppm; J2 infective juveniles suspended in solution; mortality after three days
# Experimental: (§1) The activities of individual compounds of formula (I) were determined using a variety of pests. With the exception of nematodes, the pests were treated with a liquid composition containing 500 parts per million (ppm) by weight of a compound unless otherwise stated. Each composition was made by dissolving the compound in an acetone and ethanol (50:50 by volume) mixture and diluting the solution with water containing 0.05% by volume of a wetting agent, SYNPERONIC NP8, until the liquid composition contained the required concentration of the compound.
# The test procedure for nematodes involved dissolving the compound in an acetone and ethanol (50:50 by volume) mixture and diluting the solution with water to obtain a final concentration of the compound of 12.5 ppm. J2 infective juveniles of Meloidogyne incognita were suspended in the solution in a glass vial and mortality assessed after a period of three days.
# [8] = system: Musca domestica; conditions: 500 ppm by weight; knockdown assessed 15 minutes after treatment
# Experimental: as §1
# The test procedure adopted with regard to each pest, except nematodes, was essentially the same and composed supporting a number of the pests on a medium which was usually a substrate, a host plant or a foodstuff on which the pests feed, and treating either or both the medium and the pests with a composition. Pest mortality was assessed usually between three and five days after treatment Knockdown of housefly (Musca domestica) was assessed 15 minutes after treatment
# [9] = system: Botrytis cinerea; experiment: Fungicidal test, Botrytis cinerea (BOTRCI) on tomatoes, PRCO; assay type: in vivo; conditions: METHOD 2 (unbanded)
# [10] = system: Venturia inaequalis; experiment: Fungicidal test, Venturia inaequalis (VENTIN) on apples, PRCO; assay type: in vivo; conditions: METHOD 2 (unbanded)
# [11] = system: Erysiphe graminis f.sp. tritici; experiment: Fungicidal test, Erysiphe graminis f.sp. tritici (ERYSGT) on wheat, PRCO; assay type: in vivo; conditions: 6 hr Prot/Foir; METHOD 1 (values marked *)
# [12] = system: Plasmopara viticola; experiment: Synergy test of two-compound mixtures, Plasmopara viticola (PLASVI) on vines, observed and expected PRCO; assay type: in vivo; conditions: Disease on untreated: 95%; Compound 15(A3) 0.2 mg/l alone
# [13] = system: Pyricularia oryzae; assay type: in vivo; conditions: METHOD 2 (unbanded)
# [14] = system: Septoria nodorum; experiment: Fungicidal test, Septoria nodorum (LEPTNO) on wheat, PRCO; assay type: in vivo; conditions: METHOD 2 (unbanded)
# [15] = system: Plasmopara viticola; experiment: Fungicidal test, Plasmopara viticola (PLASVI) on vines, PRCO; assay type: in vivo; conditions: METHOD 2 (unbanded)
compound,measurement,setting,value
Cc1nsc(NC(=O)Cc2ccc3oc(CC(C)(C)C)nc3c2)c1Cl [Compound 15(A3)],UNCINE 1 d Prot/Foir PRCO,[1],100
same,PHYTIN 1 d Prot/Foir PRCO,[2],100*
same,RHIZSO 1 d Prot/Foir PRCO,[3],5
same,% disease control Observed,"[4]; Test 1 (Disease on untreated: 52%), Compound 15(A3) 50 mg/l alone",16%
same,% disease control Observed,"[4]; Test 1 (Disease on untreated: 52%), Compound 15(A3) 100 mg/l alone",27%
same,% disease control Observed,"[4]; Test 2 (Disease on untreated: 64%), Compound 15(A3) 50 mg/l alone",21%
same,% disease control Observed,"[4]; Test 2 (Disease on untreated: 64%), Compound 15(A3) 100 mg/l alone",21%
same,PUCCRT 1 d Prot/Foir PRCO,[5],100
same,% disease control Observed,[6]; Test 1,2.5%
same,% disease control Observed,[6]; Test 2,6.1%
same,"MELGIN = Meloidogyne incognita, grading of mortality (score)",[7],0 (0 indicates less than 40% mortality)
same,"MUSCDO AC = Musca domestica (knockdown), score",[8],9 (9 indicates 80-100% mortality)
same,BOTRCI 1 d Prot/Foir PRCO,[9],73
same,VENTIN 1 d Prot/Foir PRCO,[10],100
same,ERYSGT 6 hr Prot/Foir PRCO,[11],100*
same,% disease control Observed,[12],45%
same,PYRIOR 1 d Prot/Foir PRCO,[13],100
same,LEPTNO 1 d Prot/Foir PRCO,[14],71
same,PLASVI 1 d Prot/Foir PRCO,[15],100
